# Assay results: patent US20050054845A1, “Thymosin augmentation of genetic immunization” (Rhode Island Hospital, priority 2001, published 2005)
# Ends that are not written are not given here.
# Experiments:
# [1] = tested on: spleen cells stimulated with recombinant NS5; experiment: T-cell proliferation assay after genetic immunization; format: in vivo, Balb/c mice; conditions: co-administration of 5 μg thymosin α1 i.p. twice/week with 50 μg pAp031NS5 DNA vs DNA alone; all three challenge concentrations; [3H]-thymidine incorporation; FIG. 3
# Experimental: (§1) To enhance the cellular uptake of plasmid DNA, the quadriceps muscle of Balb/c mice was injected at multiple sites with a total of 100 μL of 0.25% hupivacaine. Four days later, the plasmid constructs were injected into the same region at five different sites in a final volume of 100 μL 0.9% NaCl. Two weeks later the mice were boosted in the opposite leg with plasmid DNA. The mice were killed ten days after the last immunization. There were three groups of mice each containing five animals. Group 1=mice immunized with 100 μg mock DNA; Group 2=mice immunized with 50 μg pAp031NS5 and 50 μg mock DNA; Group 3=mice immunized with 50 μg pAp031 NS5 and 50 μg mock DNA, and received 5 μg thymosin α1 i.p. twice/week. Animals were immunized three times two weeks apart, and studies were performed ten days after the final immunization.
# Mice were anesthetized with isoflurane (Aerrane, Anaquest, N.J.), blood was removed by retrobulbar puncture and spleen cells were harvested. Red blood cells were removed by incubation in […] NH4C1/0.17 mol/L Tris (pH 7.4) for 10 minutes at 37° C. […] The [^3H]-thymidine incorporation into DNA was measured after harvesting. […] Incorporation of radioactivity was corrected for background activity (Δ cpm). […]
# [2] = tested on: SP2—NS5 cells; experiment: Cytotoxicity (CTL) 51Cr-release assay after genetic immunization; format: in vivo, Balb/c mice; conditions: co-administration of 5 μg thymosin α1 i.p. twice/week with 50 μg pAp031NS5 DNA vs DNA alone; L/T ratios 1:10 and 1:100; 4-hour 51Cr-release; FIG. 4
# Experimental: as §1
# Spleen cells from immunized mice were suspended in complete DMEM containing 10% FCS and 50 μmol/L 2-mercaptoethanol; the cells were then analyzed for cytotoxic activity 5 days after in vitro stimulation. […] Percent cytotoxicity was calculated as: [formula] […] Total release represents the radioactivity released after total lysis of target cells with 5% TritonX-100. […]
# Spontaneous release represents the radioactivity present in medium derived from target cells only. […]
# [3] = in vivo; cited from earlier work
substance,measurement,setting,value
"thymosin α1 (SDAAVDTSSEITTKDLKEKKEVVEEAEN; ends and bridges not checked; UniProt P06454 2-29, looked up) [α thymosin]",increase of CD4 proliferative response,[1],approximately 100%
same,increase of percent cytotoxicity,[2],≥ 100%
same,dose found to be safe for humans,[3],≤ 16 mg/kg body weight/day
